Data on 37 compounds can be found in US8383637B2, “2-amino-quinazoline derivatives useful as inhibitors of β-secretase (BACE)” (Jansssen Pharmaceutica N.V., priority 2004, dated 2013).

One may read the Ki as a measure of affinity in units of concentration, obtained from inhibition or displacement. As a reminder, the IC50 is the midpoint of a concentration-inhibition curve. The term inhibition denotes the relative decrease from the control value, in per cent.

Where “and” joins values, the source holds several entries; their conditions need not be identical. Equal values may be shown once.

Common to all, as to format: biochemical
Test [1] has as its target T1, β-secretase(BACE) (Homo sapiens, UniProt P56817).
T1 construct: purchased Panvera
The test is described as follows: BACE Assay-2 (FS1 substrate, IC50 and Ki). Conditions: procedure of Example 159, FS1 substrate; for Ki: read-out: Ki μM (159).

Test [2] addresses T1, β-secretase(BACE). The test is described as follows: BACE Assay-1 (MCA-substrate, IC50). Conditions: procedure of Example 158; read-out: IC50 μM (158). As for the experimental part:
The following standards are reagents were used in this assay: Sodium Citrate trisodium salt dihydrate (Sigma), Citric Acid monohydrate (Merck), PEG8000 (Sigma), MCA-substrate (Bachem), β-secretase (BACE) (Panvera), 96-well plate zwart (Costar (Elscolab)), StatVal (Bachem).
The following standard assay buffer solution was prepared and used in this assay: 0.05 M, pH 5.0 mixture of sodium citrate trisodium salt dihydrate (9.56 g), citric acid monohydrate (3.68 g) and PEG8000 (0.50 g).
The MCA-substrate stock solution was prepared by mixing 10 mg MCA-substrate with 5 mL DMSO for a final solution concentration of 2.0 mg/mL. The substrate work solution was prepared by mixing 0.1 mL substrate in 1.90 mL assay buffer for a final concentration of 0.05 mM. The β-secretase (BACE) work solution was prepared by mixing 8 μL BACE in 2 mL assay buffer for a final concentration of 10 μg/mL.
The screen procedure for this assay was as follows. 60 μL of assay buffer was pippeted into each well of a 96-well plate. To each well was then pipetted 1 μL of test compound at the selected concentration. To each well was then added 20 μL of the β-secretase work solution and 20 μL of the MCA-substrate stock solution.
The procedure for the blank was as follows. 80 μL of assay buffer was pipetted into each well to be used as a blank control. To each well was then added 1 μL of DMSO and 20 μL of MCA-substrate solution in each well.
The procedure for the positive control was as follows. 60 μL of assay buffer was pipetted into each well to be used as a positive control. To each well was then added 1 μL of DMSO, 20 μL of BACE work solution and 20 μL of MCA-substrate stock solution.
For test compounds, measured at multiple concentrations, the measured T0 and T60 values were used to calculate an IC50 value using Graphpad Software (or PIR).

The target of test [3] is T1, β-secretase(BACE). The experiment in a line: BACE FS1% Inhibition Assay. The conditions noted are these: FS1 substrate; for inhibition at 0.3 µM: read-out: % Inhibition (FS) 0.3 μM; for inhibition at 1 µM: read-out: % Inhibition (FS) 1 μM; for inhibition at 3 µM / % Inhibition (FS) 3 μM: 3 μM test compound; for inhibition at 3 µM: read-out: % Inhibition (FS) 3 μM. The method in brief:
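Percent inhibition at each tested concentration, referenced to enzyme-free blank and vehicle-only positive control. Reaction: compound and BACE (4 μg/mL working stock) mixed 20 min at room temperature before FS1 substrate (300 μg/mL working stock), then 1 h at room temperature.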

T1 sequence (P56817 46-501): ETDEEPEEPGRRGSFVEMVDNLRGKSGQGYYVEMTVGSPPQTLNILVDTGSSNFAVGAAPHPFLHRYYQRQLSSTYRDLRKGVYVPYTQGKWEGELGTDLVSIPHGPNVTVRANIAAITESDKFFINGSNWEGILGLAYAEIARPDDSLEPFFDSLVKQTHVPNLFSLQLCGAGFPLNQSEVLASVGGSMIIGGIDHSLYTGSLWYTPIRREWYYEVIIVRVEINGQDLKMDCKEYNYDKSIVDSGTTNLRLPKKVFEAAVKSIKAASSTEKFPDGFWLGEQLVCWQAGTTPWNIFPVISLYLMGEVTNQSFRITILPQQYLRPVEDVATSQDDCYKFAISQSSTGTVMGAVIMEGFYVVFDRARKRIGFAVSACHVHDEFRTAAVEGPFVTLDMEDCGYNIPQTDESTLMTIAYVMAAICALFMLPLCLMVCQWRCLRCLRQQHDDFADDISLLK

As for `NC1=Nc2ccc(Oc3ccccc3)cc2CN1C(CNC(=O)C1CCCCC1)C1CCCCC1` (centres unmarked) [Compound 294, Cyclohexanecarboxylic acid [2-(2-amino-6-phenoxy-4H-quinazolin-3-yl)-2-cyclohexyl-ethyl]-amide], the Ki on β-secretase(BACE) [1] came out at 0.02 µM. Besides, the half-inhibitory concentration (IC50) at β-secretase(BACE) [2] stood at 0.016 µM. At β-secretase(BACE) [3] (0.3 μM test compound), the inhibition at 0.3 µM came to 94%. Moreover, the inhibition at 1 µM at β-secretase(BACE) [3] (1 μM test compound) is 109%. In addition, the inhibition at 3 µM on β-secretase(BACE) [3] came to 118%. For `CCC(c1cccc(C(=O)N(C)C2CCCCC2)c1)N1Cc2cc(Oc3ccccc3)ccc2N=C1N` (centres unmarked) [Compound 204, 3-[1-(2-Amino-6-phenoxy-4H-quinazolin-3-yl)-propyl]-N-cyclohexyl-N-methyl-benzamide], the Ki on β-secretase(BACE) [1] stood at 0.23 µM. For the same compound, at β-secretase(BACE) [2], the concentration for half-maximal inhibition (IC50) was 0.062 µM. In addition, the “% Inhibition (FS) 0.3 μM” value at β-secretase(BACE) [3] (0.3 μM test compound, 0.3 µM) was <30% and 54%. The “% Inhibition (FS) 1 μM” value at β-secretase(BACE) [3] (1 μM test compound, 1 µM) was 66% and 97%. Further, the “% Inhibition (FS) 3 μM” value at β-secretase(BACE) [3] (3 µM) is given as 115%. Also, the inhibition at 3 µM on β-secretase(BACE) [3] was 107%. For the compound `NC1=Nc2ccc(Oc3ccccc3)cc2CN1CCNC(=O)C1CC1` [Compound 123], at β-secretase(BACE) [1], the inhibition constant (Ki) stood at 0.3 µM. The half-maximal inhibitory concentration (IC50) on β-secretase(BACE) [2] turned out to be 1.2 µM. Moreover, the inhibition at 3 µM at β-secretase(BACE) [3] came to 71%. Also, the inhibition at 10 µM on β-secretase(BACE) [3] (10 μM test compound, read-out: % Inhibition (FS) 10 μM) is 116%. For the compound `CC(C)[C@H](CCC(=O)N(C)C1CCCCC1)N1Cc2cc(Oc3ccccc3)ccc2N=C1N` [Compound 450], the Ki on β-secretase(BACE) [1] turned out to be 0.019 µM. Moreover, the concentration for half-maximal inhibition (IC50) at β-secretase(BACE) [2] was found to be 0.011 µM. Moreover, the inhibition at 0.3 µM on β-secretase(BACE) [3] (0.3 μM test compound) is 97%. In addition, the inhibition at 1 µM on β-secretase(BACE) [3] (1 μM test compound) was determined as 112%. Moreover, the inhibition at 3 µM at β-secretase(BACE) [3] was found to be 121%.

Consider `CCCC(CCCC(=O)N(C)C1CCN(C)CC1)N1Cc2cc(Oc3ccccc3)ccc2N=C1N` (centres unmarked) [Compound 106], for which the Ki on β-secretase(BACE) [1] is 0.23 µM. Further, the half-inhibitory concentration (IC50) on β-secretase(BACE) [2] worked out at 0.15 µM. For the same compound, the “% Inhibition (FS) 3 μM” value at β-secretase(BACE) [3] was 103%. Moreover, the “% Inhibition (FS) 10 μM” value on β-secretase(BACE) [3] (10 μM test compound) is listed as 114%.

On to `NC1=Nc2ccc(Oc3ccccc3)cc2CN1CCC(=O)NC1CCCCC1` [Compound 178], for which, at β-secretase(BACE) [1], the Ki is 0.11 µM. In addition, on β-secretase(BACE) [2], the IC50 was 0.19 µM. For the same compound, the inhibition at 0.3 µM on β-secretase(BACE) [3] (0.3 μM test compound) amounted to 50%. In addition, the inhibition at 1 µM at β-secretase(BACE) [3] (1 μM test compound) turned out to be 93%. The inhibition at 3 µM on β-secretase(BACE) [3] turned out to be 107%. Regarding `Cc1ccc(C(CCC(=O)N(C)C2CCCCC2)N2Cc3cc(Oc4ccccc4)ccc3N=C2N)cc1` (centres unmarked) [Compound 421], the half-maximal inhibitory concentration (IC50) on β-secretase(BACE) [2] worked out at 0.054 µM. The inhibition at 0.3 µM on β-secretase(BACE) [3] (0.3 μM test compound) was below 30%. Further, on β-secretase(BACE) [3] (1 μM test compound), the inhibition at 1 µM is 71%. On β-secretase(BACE) [3], the inhibition at 3 µM stood at 111%. As to `CC(C)(C)OC(=O)NCCN1Cc2cc(Oc3cccc(NS(=O)(=O)c4ccccc4)c3)ccc2N=C1N` [Compound 394], the IC50 on β-secretase(BACE) [2] was 0.87 µM. As to `CN(C(=O)CCCCN1Cc2cc(Oc3cccc(NCC4CCCCC4)c3)ccc2N=C1N)C1CCCCC1` [Compound 96], on β-secretase(BACE) [2], the IC50 was 0.78 µM. The same measure, in the same setting: as for `CCCN1Cc2cc(Oc3cccc(NS(=O)(=O)c4ccc(-c5csc(C)n5)s4)c3)ccc2N=C1N` [Compound 254], the figure is above 10 µM; as for `CCCN1Cc2cc(Oc3cccc(NS(=O)(=O)c4cccc(OC(F)(F)F)c4)c3)ccc2N=C1N` [Compound 252], 1 µM. Consider `NC1=Nc2ccc(C(=O)c3ccccc3)cc2CN1CCCOc1ccccc1` [Compound 8], for which, at β-secretase(BACE) [1], inhibition was half-maximal at 15 µM (IC50) and the inhibitory constant (Ki) is 1.2 µM. On β-secretase(BACE) [2], the half-maximal inhibitory concentration (IC50) worked out at 3.1 µM. `CCCN1Cc2cc(Oc3cccc(NS(=O)(=O)c4ccc(C)cc4OC)c3)ccc2N=C1N` [Compound 273]: the concentration for half-maximal inhibition (IC50) on β-secretase(BACE) [2] worked out at 0.17 µM. Same read-out and setting: next, `CN(C(=O)CCCCN1Cc2cc(C(=O)c3ccccc3)ccc2N=C1N)C1CCCc2ccccc21` (centres unmarked) [Compound 54]: 2.3 µM. For `CCCN1Cc2cc(-c3cccc(NS(=O)(=O)c4ccccc4)c3)ccc2N=C1N` [Compound 397], on β-secretase(BACE) [2], the IC50 came to 3.98 µM. `CCCN1Cc2cc(Oc3cccc(NS(=O)(=O)c4ccc5c(c4)OCCO5)c3)ccc2N=C1N` [Compound 275]: the IC50 on β-secretase(BACE) [2] is above 10 µM. As to `CN(C(=O)CCN1Cc2cc(C(=O)c3ccc(F)cc3)ccc2N=C1N)C1CCCCCC1` [Compound 5], the concentration for half-maximal inhibition (IC50) on β-secretase(BACE) [2] was 5.1 µM.

`CCCN1Cc2cc(Oc3cccc(NS(C)(=O)=O)c3)ccc2N=C1N` [Compound 237]: the IC50 at β-secretase(BACE) [2] is above 10 µM. As to `CCCN1Cc2cc(Oc3cccc(NCc4ccc(OC)cc4)c3)ccc2N=C1N` [Compound 502], the concentration for half-maximal inhibition (IC50) on β-secretase(BACE) [2] amounted to 0.18 µM. Consider `CCCN1Cc2cc(Oc3cccc(NS(=O)(=O)c4cccc5ccccc45)c3)ccc2N=C1N` [Compound 274], for which the IC50 on β-secretase(BACE) [2] is above 10 µM.

For the compound `CCCN1Cc2cc(Oc3cccc(NS(=O)(=O)c4ccc5ccccc5c4)c3)ccc2N=C1N` [Compound 244], the half-maximal inhibitory concentration (IC50) on β-secretase(BACE) [2] turned out to be 2.1 µM. The same measure, in the same setting: next, `CCCN1Cc2cc(Oc3cccc(NS(=O)(=O)c4ccsc4)c3)ccc2N=C1N` [Compound 240]: 0.89 µM.

Regarding `NC1=Nc2ccc(C(=O)c3ccccc3)cc2CN1CCCCC(=O)NC1CCCCC1` [Compound 31], the IC50 at β-secretase(BACE) [2] was found to be 2.3 µM. The same measure, in the same setting: as for `CN(Cc1ccccc1)C(=O)CCCCN1Cc2cc(C(=O)c3ccccc3)ccc2N=C1N` [Compound 47], the figure is 4.2 µM. In the case of `CCOC(=O)N1CCC(N2Cc3cc(Oc4cccc(NS(=O)(=O)c5ccccc5)c4)ccc3N=C2N)CC1` [Compound 376], on β-secretase(BACE) [2], the IC50 was 0.17 µM. `CN(C(=O)CCN1Cc2cc(C(=O)c3ccccc3)ccc2N=C1N)C1CCCCCC1` [Compound 4]: the half-inhibitory concentration (IC50) at β-secretase(BACE) [2] worked out at 2.5 µM.

With `CN(C1CCCCC1)S(=O)(=O)CCN1Cc2cc(C(=O)c3ccccc3)ccc2N=C1N` [Compound 57, 2-(2-Amino-6-benzoyl-4H-quinazolin-3-yl)-ethanesulfonic acid cyclohexyl-methyl-amide], the half-inhibitory concentration (IC50) at β-secretase(BACE) [2] worked out at 1.4 µM.

As to `CC(C)N(C)C(=O)CCN1Cc2cc(C(=O)c3ccccc3)ccc2N=C1N` [Compound 22], the IC50 on β-secretase(BACE) [2] was 12 µM.

As to `CN(C1CCCCC1)S(=O)(=O)CCN1Cc2cc(Oc3cccc(NC(=O)OCc4ccccc4)c3)ccc2N=C1N` [Compound 71], the concentration for half-maximal inhibition (IC50) on β-secretase(BACE) [2] was 2.6 µM. On the same count and under the same terms, next, `NC1=Nc2ccc(Oc3cccc(NC(=O)OCc4ccccc4)c3)cc2CN1CCCCC(=O)N(C1CCCCC1)C1CCCCC1` [Compound 75]: 0.66 µM; `CCCN1Cc2cc(Oc3cccc(NS(=O)(=O)Cc4ccccc4)c3)ccc2N=C1N` [Compound 269]: 0.35 µM; `CN(C(=O)CCCCN1Cc2cc(Oc3cccc(NC(=O)OCc4ccccc4)c3)ccc2N=C1N)C1CCCCC1` [Compound 133]: 0.15 µM. On to `CCCN1Cc2cc(Oc3cccc(NS(=O)(=O)c4ccc(-c5ccno5)s4)c3)ccc2N=C1N` [Compound 278], for which the half-inhibitory concentration (IC50) on β-secretase(BACE) [2] is above 10 µM. Take `CN(C(=O)CCN1Cc2cc(C(=O)c3ccccc3)ccc2N=C1N)C1CCCc2ccccc21` (centres unmarked) [Compound 45]: at β-secretase(BACE) [2], the IC50 was determined as 2.7 µM. Same read-out and setting: as for `CCCN1Cc2cc(Oc3cccc(NS(=O)(=O)c4ccccc4S(C)(=O)=O)c3)ccc2N=C1N` [Compound 250], the figure is above 10 µM; as for `CN(C(=O)CCCCN1Cc2cc(C(=O)c3ccccc3)ccc2N=C1N)C12CC3CC(CC(C3)C1)C2` [Compound 48], 4 µM; as for `CCCCS(=O)(=O)Nc1cccc(Oc2ccc3c(c2)CN(CCC)C(N)=N3)c1` [Compound 239], 0.35 µM.
